Measurements: PubChem BioAssay (NCI)
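Step 1: Grow cells in 96-well plates. Step 2: Expose to compound for 48 hours at 5 concentrations. Step 3: Interpolate endpoints linearly; if unreached, use highest concentration. TGI marks complete inhibition of growth.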

Tests used:
Experiment in all cases: growth of human tumour cells (NCI), 48 h
[1] = test system: 786-0 renal
[2] = test system: A549 NSCLC
[3] = test system: ACHN renal
[4] = test system: BT-549 breast
[5] = test system: CAKI-1 renal
[6] = test system: COLO 205 colon
[7] = test system: DU-145 prostate
[8] = test system: EKVX NSCLC
[9] = test system: HCC-2998 colon
[10] = test system: HCT-116 colon
[11] = test system: HOP-92 NSCLC
[12] = test system: HT29 colon
[13] = test system: IGROV1 ovarian
[14] = test system: M14 melanoma
[15] = test system: MALME-3M melanoma
[16] = test system: MDA-MB-231 breast
[17] = test system: MDA-MB-435
[18] = test system: MDA-N
[19] = test system: NCI-H522 lung
[20] = test system: NCI/ADR-RES ovarian
[21] = test system: OVCAR-3 ovarian
[22] = test system: OVCAR-8 ovarian
[23] = test system: PC-3 prostate
[24] = test system: RPMI-8226 leukemia
[25] = test system: SF-268 CNS
[26] = test system: SF-295 CNS
[27] = test system: SK-MEL-28 melanoma
[28] = test system: SK-MEL-5 melanoma
[29] = test system: SK-OV-3 ovarian
[30] = test system: SN12C renal
[31] = test system: SNB-19 CNS
[32] = test system: SNB-75 CNS
[33] = test system: SR leukemia
[34] = test system: SW-620 colon
[35] = test system: T-47D breast
[36] = test system: U251 CNS
[37] = test system: UACC-62 melanoma
[38] = test system: UO-31 renal
[39] = test system: CCRF-CEM leukemia
[40] = test system: HL-60(TB) leukemia
[41] = test system: HOP-62 NSCLC
[42] = test system: HS 578T breast
[43] = test system: K-562 leukemia
[44] = test system: KM12 colon
[45] = test system: LOX IMVI melanoma
[46] = test system: MCF7 breast
[47] = test system: MOLT-4 leukemia
[48] = test system: NCI-H226 lung
[49] = test system: NCI-H23 lung
[50] = test system: NCI-H460 lung
[51] = test system: OVCAR-4 ovarian
[52] = test system: OVCAR-5 ovarian
[53] = test system: RXF 393 renal
[54] = test system: SF-539 CNS
[55] = test system: SK-MEL-2 melanoma
[56] = test system: TK-10 renal
[57] = test system: A498 renal
[58] = test system: HCT-15 colon
[59] = test system: UACC-257 melanoma

## CCOc1cc(CC[N+](C)(C)C)c2c(ccc3ccc(OC)c(OC)c32)c1OC
[1]
  TGI: > 100 µM
[2]
  TGI: > 100 µM
[3]
  TGI: > 100 µM
[4]
  TGI: > 100 µM
[5]
  TGI: > 100 µM
[6]
  TGI: > 100 µM
[7]
  TGI: > 100 µM
[8]
  TGI: > 100 µM
[9]
  TGI: > 100 µM
[10]
  TGI: > 100 µM
[11]
  TGI: > 100 µM
[12]
  TGI: > 100 µM
[13]
  TGI: > 100 µM
[14]
  TGI: > 100 µM
[15]
  TGI: > 100 µM
[16]
  TGI: > 100 µM
[17]
  TGI: > 100 µM
[18]
  TGI: > 100 µM
[19]
  TGI: > 100 µM
[20]
  TGI: > 100 µM
[21]
  TGI: > 100 µM
[22]
  TGI: > 100 µM
[23]
  TGI: > 100 µM
[24]
  TGI: > 100 µM
[25]
  TGI: > 100 µM
[26]
  TGI: > 100 µM
[27]
  TGI: > 100 µM
[28]
  TGI: > 100 µM
[29]
  TGI: > 100 µM
[30]
  TGI: > 100 µM
[31]
  TGI: > 100 µM
[32]
  TGI: > 100 µM
[33]
  TGI: > 100 µM
[34]
  TGI: > 100 µM
[35]
  TGI: > 100 µM
[36]
  TGI: > 100 µM
[37]
  TGI: > 100 µM
[38]
  TGI: > 100 µM

## CC1(C)COC(c2cccc(C(O)c3ccc(Cl)cc3)c2)=N1 (configuration not stated)
[1]
  TGI: 59.8 µM
[3]
  TGI: > 100 µM
[5]
  TGI: 87.1 µM
[39]
  TGI: > 100 µM
[6]
  TGI: 34 µM
[7]
  TGI: > 100 µM
[8]
  TGI: > 100 µM
[9]
  TGI: 64.7 µM
[10]
  TGI: 37.9 µM
[40]
  TGI: > 100 µM
[41]
  TGI: 88.6 µM
[11]
  TGI: 59 µM
[42]
  TGI: > 100 µM
[12]
  TGI: 37.2 µM
[13]
  TGI: > 100 µM
[43]
  TGI: > 100 µM
[44]
  TGI: > 100 µM
[45]
  TGI: 29.1 µM
[14]
  TGI: 45.1 µM
[15]
  TGI: 59.9 µM
[46]
  TGI: 39.6 µM
[16]
  TGI: > 100 µM
[17]
  TGI: 67.3 µM
[18]
  TGI: 70 µM
[47]
  TGI: 59.3 µM
[48]
  TGI: 33.5 µM
[49]
  TGI: 64.1 µM
[50]
  TGI: > 100 µM
[19]
  TGI: > 100 µM
[20]
  TGI: 77.2 µM
[21]
  TGI: 45.7 µM
[51]
  TGI: > 100 µM
[52]
  TGI: 45.5 µM
[22]
  TGI: 42.3 µM
[23]
  TGI: 53.8 µM
[24]
  TGI: 89.1 µM
[53]
  TGI: 37.8 µM
[25]
  TGI: 87.3 µM
[54]
  TGI: 42.5 µM
[55]
  TGI: 47.5 µM
[27]
  TGI: > 100 µM
[28]
  TGI: 28.6 µM
[29]
  TGI: 65.1 µM
[30]
  TGI: 73.9 µM
[31]
  TGI: > 100 µM
[32]
  TGI: 60.5 µM
[33]
  TGI: > 100 µM
[34]
  TGI: > 100 µM
[35]
  TGI: 73.9 µM
[56]
  TGI: 76.3 µM
[36]
  TGI: 59.6 µM
[37]
  TGI: 44.9 µM
[38]
  TGI: 46.7 µM

## C=C(C)C1Cc2c(cc3c(c2O)c(=O)c2ccccc2n3C)O1 (configuration not stated)
[1]
  TGI: 2.91 µM
[57]
  TGI: 22.1 µM
[2]
  TGI: 24.9 µM
[3]
  TGI: 35.7 µM
[4]
  TGI: 3.28 µM
[5]
  TGI: 11.2 µM
[6]
  TGI: 12.3 µM
[8]
  TGI: 35.3 µM
[9]
  TGI: 28.3 µM
[10]
  TGI: 4.94 µM
[58]
  TGI: 9.93 µM
[41]
  TGI: 25.2 µM
[11]
  TGI: 21.3 µM
[42]
  TGI: 28.7 µM
[12]
  TGI: 7.32 µM
[13]
  TGI: 4.16 µM
[44]
  TGI: 5.75 µM
[14]
  TGI: 10.6 µM
[15]
  TGI: 3.41 µM
[46]
  TGI: 17 µM
[16]
  TGI: 6.72 µM
[17]
  TGI: 20.7 µM
[18]
  TGI: 12.2 µM
[47]
  TGI: 1.99 µM
[48]
  TGI: 6.77 µM
[49]
  TGI: 5.34 µM
[50]
  TGI: 19 µM
[20]
  TGI: 8.19 µM
[21]
  TGI: 27.9 µM
[51]
  TGI: 22.3 µM
[52]
  TGI: 26.1 µM
[22]
  TGI: 5.67 µM
[23]
  TGI: 19.3 µM
[24]
  TGI: 9.72 µM
[53]
  TGI: 8.52 µM
[25]
  TGI: 14.2 µM
[26]
  TGI: 18.2 µM
[54]
  TGI: 5.99 µM
[55]
  TGI: 26.7 µM
[27]
  TGI: 24.9 µM
[28]
  TGI: 8.02 µM
[29]
  TGI: 13.5 µM
[30]
  TGI: 7.52 µM
[31]
  TGI: 12 µM
[32]
  TGI: 17 µM
[33]
  TGI: 4.95 µM
[34]
  TGI: 5.68 µM
[35]
  TGI: 21 µM
[56]
  TGI: 27 µM
[36]
  TGI: 12.7 µM
[59]
  TGI: 30.7 µM
[37]
  TGI: 7.57 µM
[38]
  TGI: 4.01 µM

## Nc1ccc(C2(c3ccc(N)cc3)C3CC4CC(C3)CC2C4)cc1
[57]
  TGI: 41.3 µM
[3]
  TGI: 32.7 µM
[4]
  TGI: 25.2 µM
[5]
  TGI: 31.9 µM
[39]
  TGI: 25.3 µM
[8]
  TGI: 32 µM
[9]
  TGI: 41 µM
[10]
  TGI: 42.1 µM
[58]
  TGI: 37.2 µM
[40]
  TGI: 46.6 µM
[41]
  TGI: 29.3 µM
[11]
  TGI: 28.5 µM
[12]
  TGI: 26.3 µM
[13]
  TGI: 24.1 µM
[43]
  TGI: 47.4 µM
[44]
  TGI: 25.3 µM
[45]
  TGI: 39.7 µM
[14]
  TGI: 29.9 µM
[46]
  TGI: 43.7 µM
[16]
  TGI: 37.5 µM
[17]
  TGI: 31.5 µM
[18]
  TGI: 37.6 µM
[47]
  TGI: 28.2 µM
[48]
  TGI: 45.1 µM
[49]
  TGI: 28.7 µM
[19]
  TGI: 30.5 µM
[20]
  TGI: 23.4 µM
[21]
  TGI: 25.1 µM
[51]
  TGI: 32.5 µM
[52]
  TGI: 32.7 µM
[22]
  TGI: 35.5 µM
[23]
  TGI: 29.3 µM
[53]
  TGI: 17.8 µM
[25]
  TGI: 27.3 µM
[26]
  TGI: 20.3 µM
[55]
  TGI: 34.8 µM
[27]
  TGI: > 100 µM
[29]
  TGI: 30 µM
[30]
  TGI: 45.7 µM
[31]
  TGI: 33.3 µM
[33]
  TGI: > 100 µM
[34]
  TGI: 28.8 µM
[35]
  TGI: 42.8 µM
[56]
  TGI: 32.2 µM
[36]
  TGI: 37 µM
[59]
  TGI: 36.2 µM
[37]
  TGI: 30.6 µM
[38]
  TGI: 33.9 µM
